Source: patent US20240107999A1, “ANTIBACTERIAL COMPOSITION” (LG CHEM, LTD., priority 2021, published 2024)

Experiments:
[1] = test system: P. mirabilis (ATCC29906); test: Antibacterial strength (bacteriostatic reduction rate) by Methods 1 to 4, broth culture absorbance at 600 nm; format: cell-based; details: Proteus mirabilis, 16 hours, 35° C.; for inhibition of growth at 200 µg/mL: amount of antibacterial composition added 0.005 g in 25 ml broth, 3,000 CFU/ml, read-out: Antibacterial strength (%) Method 2; for inhibition of growth at 400 µg/mL: amount of antibacterial composition added 0.01 g in 25 ml broth, 3,000 CFU/ml, read-out: Antibacterial strength (%) Method 4; for inhibition of growth at 600 µg/mL: amount of antibacterial composition added 0.015 g in 25 ml broth, 3,000 CFU/ml, read-out: Antibacterial strength (%) Method 1; for inhibition of growth at 800 µg/mL: amount of antibacterial composition added 0.02 g in 25 ml broth, 3,000 CFU/ml, read-out: Antibacterial strength (%) Method 3
Experimental: (§1) After 25 ml of a broth-type medium (Nutrient broth, BD DIFCO., 8 g/L) inoculated with 3,000 CFU/ml bacteria is put into a 50 mL conical tube, 0.015 g of the antibacterial composition is added thereto and suspended (by vortexing), a sufficiently mixed solution is incubated for 16 hours in a shaking water bath maintained at 35° C.
(§2) After the incubated solution was diluted to ⅕ using a 1×PBS buffer solution, absorbance (λ=600 nm) was measured using a UV/Vis spectrophotometer, and the antibacterial strength, which is a bacteriostatic reduction rate, is calculated by the following equation by comparing the measured absorbance with a solution incubated without the addition of the antibacterial composition.
(§3) Antibacterial strength(%)=(1−Asample/AReference)×100 • Asample=Absorbance of medium solution incubated by adding antibacterial composition • AReference=Absorbance of medium solution incubated without addition of antibacterial composition
(§4) This method is the same as Method 1, except that 0.005 g of the antibacterial composition is added instead of 0.015 g of the antibacterial composition.
(§5) This method is the same as Method 1, except that 0.02 g of the antibacterial composition is added instead of 0.015 g of the antibacterial composition.
(§6) This method is the same as Method 1, except that 0.01 g of the antibacterial composition is added instead of 0.015 g of the antibacterial composition.
The antibacterial strength of Monomers 1 to 10 and Comparative Monomers 1 and 2 by Methods 1 to 4 was measured, and is shown in the following Table 1. In this case, the P. mirabilis (ATCC29906) bacteria were used.

[2] = Acute oral toxicity dose LD50 by 3T3 Neutral Red Uptake (NRU) assay (OECD Guidance Document No 129); format: cell-based; details: mouse, 3T3 cells, po, calculated from 3T3 NRU assay
Experimental: (§7) The acute oral toxicity dose LD50 and acute percutaneous toxicity dose LD50 were measured by 3T3 Neutral Red Uptake (NRU) assay (OECD Guidance Document No 129). Specifically, the acute oral toxicity dose LD50 and acute percutaneous toxicity dose LD50 can be calculated by the following method: […]

[3] = test system: P. mirabilis (ATCC29906); test: Time at which 99.9% of the antibacterial strength is confirmed (Methods 1 to 4); format: cell-based, Proteus mirabilis; details: for Time at which 99.9% of the antibacterial strength is confirmed, Method 2: amount of antibacterial composition added 0.005 g; for Time at which 99.9% of the antibacterial strength is confirmed, Method 4: amount of antibacterial composition added 0.01 g; for Time at which 99.9% of the antibacterial strength is confirmed, Method 1: amount of antibacterial composition added 0.015 g; for Time at which 99.9% of the antibacterial strength is confirmed, Method 3: amount of antibacterial composition added 0.02 g
Experimental: as §1, §2, §3, §4, §5, §6
The time at which 99.9% of the antibacterial strength of Monomers 1 to 10 and Comparative Monomers 1 and 2 is confirmed is shown in the following Table 2.

[4] = test system: 3T3; test: Acute oral toxicity dose LD50 by 3T3 Neutral Red Uptake (NRU) assay (OECD Guidance Document No 129); format: cell-based; details: calculated from 3T3 NRU assay
Experimental: as §7

[5] = Acute percutaneous toxicity dose LD50 by 3T3 Neutral Red Uptake (NRU) assay (OECD Guidance Document No 129); format: cell-based; details: mouse, 3T3 cells, other: percutaneous, calculated from 3T3 NRU assay
Experimental: as §7

| Compound | inhibition of growth at 200 µg/mL [1] [%] | inhibition of growth at 400 µg/mL [1] [%] | inhibition of growth at 600 µg/mL [1] [%] | inhibition of growth at 800 µg/mL [1] [%] | LD50 [2] [mg/kg] | Time at which 99.9% of the antibacterial strength is confirmed, Method 2 [3] | Time at which 99.9% of the antibacterial strength is confirmed, Method 4 [3] | Time at which 99.9% of the antibacterial strength is confirmed, Method 1 [3] | Time at which 99.9% of the antibacterial strength is confirmed, Method 3 [3] | Acute oral toxicity dose (mg/Kg) LD50 [4] | LD50 [5] [mg/kg] |
| --- | --- | --- | --- | --- | --- | --- | --- | --- | --- | --- | --- |
| C=CC(=O)OCC[N+](CCCC)(CCCC)CCCCCC [Comparative Monomer 1, reference compound] | 22.6 | 30.7 | 38.8 | 46.9 | 2360 |  |  |  |  |  |  |
| C=CC(=O)OCC[N+](CCCCCCCCCCCCCC)(CCCCCCCCCCCCCC)CCCCCCCCCCCCCC [Comparative Monomer 2, reference compound] | 99.9 | 99.9 | 99.9 | 99.9 | 231 | Within 1 hour | Within 1 hour | Within 1 hour | Within 1 hour |  |  |
| C=CC(=O)OCC[N+](CCCC)(CCCC)CCCCCCCC [Monomer 1] | 59.3 | 68.2 | 99.9 | 99.9 | ≥ 1000 |  |  | Within 1 hour | Within 1 hour | 1,708 mg/Kg | ≥ 2000 |
| C=CC(=O)OCC[N+](CCCC)(CCCC)CCCCCCCCCC [Monomer 2] | 99.9 | 99.9 | 99.9 | 99.9 | ≥ 1000 | Within 1 hour | Within 1 hour | Within 1 hour | Within 1 hour | 1,369 mg/Kg | ≥ 2000 |
| C=CC(=O)OCC[N+](CCCC)(CCCC)CCCCCCCCCCCC [Monomer 3] | 99.9 | 99.9 | 99.9 |  | 843 | Within 1 hour | Within 1 hour | Within 1 hour | Within 1 hour |  | ≥ 2000 |
| C=CC(=O)OCC[N+](CCCCCCCC)(CCCCCCCC)CCCCCCCC [Monomer 4] | 99.9 | 99.9 | 99.9 | 99.9 | ≥ 1000 | Within 1 hour | Within 1 hour | Within 1 hour | Within 1 hour | 1,442 mg/Kg | ≥ 2000 |
| C=C(C)C(=O)OCC[N+](CCCCCC)(CCCCCC)CCCCCCCCCC [Monomer 5] | 99.9 | 99.9 | 99.9 | 99.9 | ≥ 1000 | Within 1 hour | Within 1 hour | Within 1 hour | Within 1 hour | 1,078 mg/Kg | ≥ 2000 |
| C=C(C)C(=O)OCC[N+](CCCC)(CCCCCC)CCCCCCCCCC (centres unmarked) [Monomer 6] | 99.9 | 99.9 | 99.9 | 99.9 | ≥ 1000 | Within 1 hour | Within 1 hour | Within 1 hour | Within 1 hour | 1,111 mg/Kg | ≥ 2000 |
| C=C(C)C(=O)OCC[N+](CCCC)(CCCCCCCC)CCCCCCCCCC (centres unmarked) [Monomer 7] | 99.9 | 99.9 | 99.9 | 99.9 | 998 | Within 1 hour | Within 1 hour | Within 1 hour | Within 1 hour |  | ≥ 2000 |
| C=C(C)C(=O)OCC[N+](CCCC)(CCCCCCCCCC)CCCCCCCCCC [Monomer 8] | 99.9 | 99.9 | 99.9 | 99.9 | 869 | Within 1 hour | Within 1 hour | Within 1 hour | Within 1 hour |  | ≥ 2000 |
| C=CC(=O)OCCCC[N+](CCCC)(CCCC)CCCCCCCC [Monomer 9] | 61.2 | 70 | 99.9 | 99.9 | ≥ 1000 |  |  | Within 1 hour | Within 1 hour | 1,498 mg/Kg | ≥ 2000 |
| C=CC(=O)OCCCC[N+](CCCCCCCC)(CCCCCCCC)CCCCCCCC [Monomer 10] | 99.9 | 99.9 | 99.9 | 99.9 | ≥ 1000 | Within 1 hour | Within 1 hour | Within 1 hour | Within 1 hour | 1,242 mg/Kg | ≥ 2000 |
